Tests used:
Assay type in all cases: cell-based
[1] = test system: Interferon-α; test: Induction of Interferon-α using cryopreserved human PBMCs; details: PBMC, 24 h incubation, normalized to 1 uM resiquimod, read-out: mean pEC50 for induction of Interferon-α (converted)
Protocol: Assay for the Induction of Interferon-α Using Cryopreserved Human Peripheral Blood Mononuclear Cells (PBMCs)
Compounds were dissolved in DMSO. Serial 2-fold dilutions with DMSO were prepared and 0.25 μl dispensed into 384-well clear Greiner polypropylene plates.
Blood samples of up to 200 ml were obtained from healthy human donors. Whole blood in 25 ml volumes was overlaid onto 15 ml Ficoll® gradients in Leucosep® tubes, and centrifuged at 1000 g for 20 min. Cells in the band at the plasma/Histopaque® interface were carefully removed and washed twice with PBS (centrifuged at 400 g for 5 min to harvest). The final pellet was resuspended in freezing medium (90% Heat-inactivated serum, 10% DMSO) to a cell concentration of 4×10^7 cells/ml. The resuspended cells were then cryopreserved (frozen) using a rate controlled freezer, and stored at −140° C. for up to 4 months.
Immediately prior to assay, vials of cryopreserved (frozen) PBMCs were thawed rapidly in a water bath at 37° C. A 1:10 dilution of the cells in trypan blue was prepared and counted. The PBMCs were then diluted in growth media [RPMI 1640 containing 10% fetal calf serum (invitrogen), Penicillin+[…] (Gibco cat. #25030-024, 1:50), L-Glutamine 2 mM, and 1000 units/ml recombinant human IFN-gamma (Preprotech catalogue #300-02)] to a density of 1×10^6 cells/ml, and 50 ul/well dispensed to 384-well clear Greiner polypropylene plates containing 0.25 μl DMSO or test compound in 0.25 μl DMSO. […] Plates were incubated for 24 h at 37° C. in 5% CO2.
A multi-isoform immunoassay was used to quantify IFN-α in PBMC supernatants. Rabbit polyclonal antibody against human IFN-α (catalogue number 31101, Stratech Scientific) was diluted 1:10000 in assay buffer (RPMI 1640 containing 10% fetal calf serum, Invitrogen) and 20 μl was added to each well of an MSD® (Meso-Scale® Discovery) single small-spot 384-well GAR (goat anti-rabbit antibody coated) plate.
The plate was incubated for 1 h at room temperature with vigorous shaking. Following three washes with PBS, 20 μl of cell supernatant were added to each well of the plate. The plate was then incubated for 1 h at room temperature with vigorous shaking. A pair of monoclonal antibodies to IFN-α (catalogue numbers 21100 and 21112, Stratech Scientific) were labelled with sulfo-TAG (MSD®), diluted 1:1000 in assay buffer and 20 μl added to each well of the plate. The plate was further incubated for 1 h at room temperature with vigorous shaking. Following three washes with PBS, 30 μl of ×2 T buffer (MSD®) was added to each well and the plate was read on an MSD® Sector 6000 plate reader.
Data were normalized to internal plate controls of 1 uM resiquimod (n=16) and DMSO (n=16). pEC50 values were derived by 4-parameter curve fit with IRLS in ActivityBase, from 11-point, two-fold serial dilution of test compounds.

[2] = test system: IFN-α; test: Induction of Interferon-α using fresh human PBMCs; details: PBMC, 24 hr incubation, relative to 2 μM resiquimod control, read-out: mean pEC50 for induction of IFN-α (converted)
Protocol: (§1) Assay for the Induction of Interferon-α and TNF-α Using Fresh Human Peripheral Blood Mononuclear Cells (PBMCs)
(§2) Compounds were dissolved and serially diluted in DMSO to give 100× the required concentration range using a Biomek® 2000. 1 ul of test compound was transferred into 96-well tissue culture plates using a Biomek® FX. Each compound was assayed in duplicate for each donor. Each plate contained a dilution series of the TLR7/8 agonist resiquimod as standard and Column 11 contained 1 μl of 200 μM resiquimod (giving a 2 μM final concentration, used to define the approximate maximal response to resiquimod).
(§3) Blood samples from two human donors were collected into sodium heparin (10 U/ml). 25 ml volumes of whole blood were overlaid onto 15 mls Histopaque® in LEUCOSEP™ tubes which were centrifuged at 800 g for 20 min and the band at the plasma/histopaque interface carefully removed. The collected cells were centrifuged at 2500 rpm for 10 min and the pellet resuspended in 10 ml of media (RPMI 1640 (Low endotoxin) supplemented with 10% v/v foetal calf serum (FCS, low endotoxin) 100 U/ml penicillin G, 100 μg/ml streptomycin, 10 mM L-glutamine and 1× non-essential amino acids). A 1:20 dilution of the cells was prepared using trypan blue & the cells counted using a haemocytometer. The PBMCs were diluted to give a final concentration of 2×10^6/ml and 100 ul of this cells suspension was added to wells containing 1 μl of diluted test compound.
(§4) The cell preparations were incubated for 24 hr (37° C., 95% air, 5% CO2) after which a sample of the supernatant was removed using the Biomek® FX and assayed for both IFN-α and TNF-α using the MSD® (Mesoscale Discovery) electrochemiluminescence assay platform. The IFN-α assay was carried out similarly to that described above. The TNF-α assay was carried out as per kit instructions (Cat No K111BHB).
(§5) Cytokine released was expressed as a percentage of the 2 μM resiquimod control (column 11). This percentage was plotted against compound concentration and the pEC50 for the response determined by non-linear least squares curve fitting. For the IFN-α responses generally a 4 parameter logistic model was selected. For the TNF responses where a clear maximum response was obtained (i.e. a well defined plateau in the response was observed) then a 4 parameter model was generally used. If the upper asymptote of the curve wasn't well defined then the curve fitting was generally constrained to a maximal response of 100% (i.e. to the response to 2 μM resiquimod) or to the response of the highest concentration tested if this was greater than the resiquimod response. Some curves were bell shaped for one or both cytokines and the cytokine data on the down slope of the bell shaped response (i.e. concentrations above those giving the maximal response) were generally excluded from the fit, usually with the exception of the concentration immediately above the peak response. Curve fitting thus concentrated on the up slope of the dose response curve.

[3] = test system: TNF-α; test: Induction of TNF-α using fresh human PBMCs; details: PBMC, 24 hr incubation, relative to 2 μM resiquimod control, read-out: mean pEC50 for induction of TNF-α (converted)
Protocol: as §1, §2, §3, §4, §5

EC50 [2] [µM]	EC50 [3] [µM]	SMILES	EC50 [1] [µM]
–	–	Nc1nc(OC2CCCC2)nc2c1[nH]c(=O)n2CCCCN1CCCCC1 [Example 28, 6-Amino-2-(cyclopentyloxy)-9-[4-(1-piperidinyl)butyl]-7,9-dihydro-8H-purin-8-one]	< 3.16
≤ 0.001	≥ 0.316	CCC[C@H](C)Oc1nc(N)c2[nH]c(=O)n(CCCCN3CCCCC3)c2n1 [Example 20, 6-Amino-2-{[(1S)-1-methylbutyl]oxy}-9-[4-(1-piperidinyl)butyl]-7,9-dihydro-8H-purin-8-one]	< 3.16
≤ 0.01	> 1	CCCCOc1nc(N)c2[nH]c(=O)n(CCCCN3CCCCCC3)c2n1 [Example 7, 6-Amino-2-(butyloxy)-9-[4-(hexahydro-1H-azepin-1-yl)butyl]-7,9-dihydro-8H-purin-8-one]	< 3.16
–	–	CC[C@H](C)Oc1nc(N)c2[nH]c(=O)n(CCCCCN3CCCCC3)c2n1 [Example 33, 6-Amino-2-{[(1S)-1-methylpropyl]oxy}-9-[5-(1-piperidinyl)pentyl]-7,9-dihydro-8H-purin-8-one]	< 3.16
≤ 0.01	> 1	CCCCOc1nc(N)c2[nH]c(=O)n(CCCCCCN3CCCCC3)c2n1 [Example 14, 6-Amino-2-(butyloxy)-9-[6-(1-piperidinyl)hexyl]-7,9-dihydro-8H-purin-8-one]	< 3.16
–	–	Nc1nc(OC2CCCCC2)nc2c1[nH]c(=O)n2CCCCN1CCCCC1 [Example 29, 6-Amino-2-(cyclohexyloxy)-9-[4-(1-piperidinyl)butyl]-7,9-dihydro-8H-purin-8-one]	< 3.16
–	–	CCCCOc1nc(N)c2[nH]c(=O)n(CCCCCN3CCC3)c2n1 [Example 8, 6-Amino-9-[5-(1-azetidinyl)pentyl]-2-(butyloxy)-7,9-dihydro-8H-purin-8-one]	< 3.16
≤ 0.01	> 1	CCCCOc1nc(N)c2[nH]c(=O)n(CCCCCN3CCCCC3)c2n1 [Example 10, 6-Amino-2-(butyloxy)-9-[5-(1-piperidinyl)pentyl]-7,9-dihydro-8H-purin-8-one]	< 3.16
< 0.0316	> 3.16	CCCCOc1nc(N)c2[nH]c(=O)n(CCCCCN3CCCC3)c2n1 [Example 9, 6-Amino-2-(butyloxy)-9-[5-(1-pyrrolidinyl)pentyl]-7,9-dihydro-8H-purin-8-one]	< 3.16
–	–	CC[C@H](C)Oc1nc(N)c2[nH]c(=O)n(CCCCN3CCCCC3)c2n1 [Example 24, 6-Amino-2-{[(1S)-1-methylpropyl]oxy}-9-[4-(1-piperidinyl)butyl]-7,9-dihydro-8H-purin-8-one]	< 3.16
–	–	Nc1nc(OC2CCC2)nc2c1[nH]c(=O)n2CCCCN1CCCCC1 [Example 27, 6-Amino-2-(cyclobutyloxy)-9-[4-(1-piperidinyl)butyl]-7,9-dihydro-8H-purin-8-one]	< 3.16
–	–	CCC[C@@H](C)Nc1nc(N)c2[nH]c(=O)n(CCCCN3CCCCC3)c2n1 [Example 30, 6-Amino-2-{[(1R)-1-methylbutyl]amino}-9-[4-(1-piperidinyl)butyl]-7,9-dihydro-8H-purin-8-one]	< 3.16
< 0.0316	> 3.16	CCCCOc1nc(N)c2[nH]c(=O)n(CCCCN3CCCC3)c2n1 [Example 5, 6-Amino-2-(butyloxy)-9-[4-(1-pyrrolidinyl)butyl]-7,9-dihydro-8H-purin-8-one]	< 3.16
–	–	CCC[C@H](C)Nc1nc(N)c2[nH]c(=O)n(CCCCN3CCCCC3)c2n1 [Example 31, 6-Amino-2-{[(1S)-1-methylbutyl]amino}-9-[4-(1-piperidinyl)butyl]-7,9-dihydro-8H-purin-8-one]	< 3.16
–	–	CCCCOc1nc(N)c2[nH]c(=O)n(CCCN3CCCCCC3)c2n1 [Example 3, 6-Amino-2-(butyloxy)-9-[3-(hexahydro-1H-azepin-1-yl)propyl]-7,9-dihydro-8H-purin-8-one]	< 3.16
–	–	CCCCNc1nc(N)c2[nH]c(=O)n(CCCN3CCCCC3)c2n1 [Example 16, 6-Amino-2-(butylamino)-9-[3-(1-piperidinyl)propyl]-7,9-dihydro-8H-purin-8-one]	< 3.16
–	–	CCCCOc1nc(N)c2[nH]c(=O)n(CCCN3CCCC3)c2n1 [Example 2, 6-Amino-2-(butyloxy)-9-[3-(1-pyrrolidinyl)propyl]-7,9-dihydro-8H-purin-8-one]	< 3.16
–	–	CCC[C@H](C)Oc1nc(N)c2[nH]c(=O)n(CCCN3CCCCC3)c2n1 [Example 32, 6-Amino-2-{[(1S)-1-methylbutyl]oxy}-9-[3-(1-piperidinyl)propyl]-7,9-dihydro-8H-purin-8-one]	< 3.16
–	–	CCCCOc1nc(N)c2[nH]c(=O)n(CCCN3CCC3)c2n1 [Example 1, 6-Amino-9-[3-(1-azetidinyl)propyl]-2-(butyloxy)-7,9-dihydro-8H-purin-8-one]	< 3.16
–	–	CCCCNc1nc(N)c2[nH]c(=O)n(CCCCN3CCCCC3)c2n1 [Example 17, 6-Amino-2-(butylamino)-9-[4-(1-piperidinyl)butyl]-7,9-dihydro-8H-purin-8-one]	< 3.16
–	–	CCCCNc1nc(N)c2[nH]c(=O)n(CCCCCN3CCCCCC3)c2n1 [Example 19, 6-Amino-2-(butylamino)-9-[5-(hexahydro-1H-azepin-1-yl)pentyl]-7,9-dihydro-8H-purin-8-one]	< 3.16
–	–	CCCCOc1nc(N)c2[nH]c(=O)n(CCCCN3CCC3)c2n1 [Example 4, 6-Amino-9-[4-(1-azetidinyl)butyl]-2-(butyloxy)-7,9-dihydro-8H-purin-8-one]	< 3.16
–	–	CC(C)Oc1nc(N)c2[nH]c(=O)n(CCCCCN3CCCCC3)c2n1 [Example 26, 6-Amino-2-[(1-methylethyl)oxy]-9-[5-(1-piperidinyl)pentyl]-7,9-dihydro-8H-purin-8-one]	< 3.16
–	–	CCCC[C@H](C)Oc1nc(N)c2[nH]c(=O)n(CCCCN3CCCCC3)c2n1 [Example 25, 6-Amino-2-{[(1S)-1-methylpentyl]oxy}-9-[4-(1-piperidinyl)butyl]-7,9-dihydro-8H-purin-8-one]	< 3.16
–	–	CCCCOc1nc(N)c2[nH]c(=O)n(CCCN3CCCCC3)c2n1 [Example 34, 6-Amino-2-(butyloxy)-9-[3-(1-piperidinyl)propyl]-7,9-dihydro-8H-purin-8-one]	< 3.16

Reference: US10117873B2, “6-amino-purin-8-one compounds” (GlaxoSmithKline LLC, priority 2008, dated 2018)
